Values quoted from earlier work as cited in US20080003278A1, “Food products and dietary supplements for improving mental performance” (priority 2006, published 2008).

Tested on: epileptic seizures
Conditions: thirty-one patients participating in the study

CCOC(=O)C1=C[C@]2(CC)CCCN3CCc4c(n1c1ccccc41)[C@@H]32 [vinpocetine]
patients in whom the frequency of epileptic seizures was reduced and, in some cases, seizures completely eliminated: twenty of the thirty-one
